Laboratory results reported in article PMC10545567, “A complex bearing TSPO PIGA ligand coordinated to the [Au(PEt3)]^+ pharmacophore is highly cytotoxic against ovarian cancer cells” (Biometals, 2023).

Molecular target: T1, Thioredoxin reductase (TrxR) (Rattus norvegicus, UniProt O89049)
T1 construct: gene Txnrd1
Test: DTNB reduction assay with isolated rat liver TrxR, […] nm, […] min preincubation with NADPH

T1 sequence (O89049 whole entry): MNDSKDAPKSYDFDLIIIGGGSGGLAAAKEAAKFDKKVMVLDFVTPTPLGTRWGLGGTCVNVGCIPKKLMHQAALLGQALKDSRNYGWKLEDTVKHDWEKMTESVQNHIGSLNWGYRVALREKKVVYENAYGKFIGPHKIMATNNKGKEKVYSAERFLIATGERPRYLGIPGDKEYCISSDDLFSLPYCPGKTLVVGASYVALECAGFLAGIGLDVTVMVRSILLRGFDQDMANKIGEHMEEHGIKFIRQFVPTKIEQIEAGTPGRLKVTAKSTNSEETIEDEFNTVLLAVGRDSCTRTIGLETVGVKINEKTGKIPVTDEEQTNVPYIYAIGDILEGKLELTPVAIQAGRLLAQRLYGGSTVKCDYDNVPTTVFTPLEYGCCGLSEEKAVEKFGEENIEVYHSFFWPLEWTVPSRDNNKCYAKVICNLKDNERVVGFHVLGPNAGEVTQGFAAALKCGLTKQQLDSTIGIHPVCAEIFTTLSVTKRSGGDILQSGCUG

SMILES	IC50 [nM]
CCCCCCN(CCCCCC)C(=O)C(=O)c1c(-c2ccccc2)[n]([Au-][P+](CC)(CC)CC)c2ccccc12 [compound 1, [N,N-di-n-hexyl-2-(2-phenyl-1-indol-kN-3-yl)glyoxylamido]-AuPEt3]	59.2
CC[P+](CC)(CC)[Au-][Cl] [compound 5, Et3PAuCl]	51.1
